Test results as given in PubChem BioAssay AID256 (DTP/NCI, 2004).
Where “and” joins values, the source holds several entries; their conditions need not be identical. Identical values can stand only once. Toxic doses and inconclusive results are not listed. The calls were made as follows: active = survival T/C of 150% or more; inactive = T/C below 125% in these data.

System: CD2F1 mice, L1210 leukemia ip, survival T/C
Test: NCI In Vivo Anticancer Drug Screen. Data for tumor model L1210 Leukemia (intraperitoneal) in CD2F1 (CDF1) mice
Settings: higher = longer survival
How it was run: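 Antitumor effect is scored in animals hosting a serially transplanted tumor. Values compare compound-dosed animals against vehicle-only controls as a simple quotient.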

[1] = endpoint: mean survival time, dose: 12.5 mg/kg/injection, schedule: Q01DX009 (ip), vehicle: saline with Tween-80
[2] = endpoint: mean survival time, dose: 25.0 mg/kg/injection, schedule: Q01DX009 (ip), vehicle: saline with Tween-80
[3] = endpoint: mean survival time, dose: 50.0 mg/kg/injection, schedule: Q01DX009 (ip), vehicle: saline with Tween-80
[4] = endpoint: mean survival time, dose: 100.0 mg/kg/injection, schedule: Q01DX001 (ip), vehicle: saline with Tween-80
[5] = endpoint: mean survival time, dose: 200.0 mg/kg/injection, schedule: Q01DX001 (ip), vehicle: saline with Tween-80
[6] = endpoint: mean survival time, dose: 400.0 mg/kg/injection, schedule: Q01DX001 (ip), vehicle: saline with Tween-80
[7] = endpoint: mean survival time, dose: 100.0 mg/kg/injection, schedule: Q01DX009 (ip), vehicle: saline with Tween-80
[8] = endpoint: mean survival time, dose: 100.0 mg/kg/injection, schedule: Q04DX003 (ip), vehicle: saline
[9] = endpoint: mean survival time, dose: 100.0 mg/kg/injection, schedule: Q01DX001 (ip), vehicle: saline
[10] = endpoint: mean survival time, dose: 200.0 mg/kg/injection, schedule: Q01DX001 (ip), vehicle: saline
[11] = endpoint: mean survival time, dose: 200.0 mg/kg/injection, schedule: Q04DX003 (ip), vehicle: saline
[12] = endpoint: mean survival time, dose: 400.0 mg/kg/injection, schedule: Q01DX001 (ip), vehicle: saline
[13] = endpoint: mean survival time, dose: 200.0 mg/kg/injection, schedule: Q01DX009 (ip), vehicle: saline with Tween-80
[14] = endpoint: mean survival time, dose: 100.0 mg/kg/injection, schedule: Q04DX003 (ip), vehicle: saline with Tween-80
[15] = endpoint: mean survival time, dose: 200.0 mg/kg/injection, schedule: Q04DX003 (ip), vehicle: saline with Tween-80
[16] = endpoint: mean survival time, dose: 400.0 mg/kg/injection, schedule: Q04DX003 (ip), vehicle: saline with Tween-80
[17] = endpoint: mean survival time, dose: 50.0 mg/kg/injection, schedule: Q04DX003 (ip), vehicle: saline with Tween-80

Measured: T/C

Cc1c(C)c(C)c2c(c1C)CCC2O (stereo not given)
inactive: [1] 102 % of control and 105 % of control | [2] 97 % of control and 94 % of control | [3] 100 % of control [middle of 4 runs]

CC(=O)OC1CCC2(C)C(=CCC3C2CCC2(C)C(C(C)C(=O)O)CCC32)C1 (stereo not given)
inactive: [4] 102 % of control | [5] 100 % of control | [6] 96 % of control

CCOC(=O)CCOc1ccccc1N(CCCl)CCCl
inactive: [7] 87 % of control

O=C(C[n+]1cccc(C(=O)NCc2ccccc2)c1)Nc1ccc(Cl)cc1
inactive: [8] 94 % of control

COc1cc(-c2ccc(N=Nc3c(O)ccc4ccccc34)c(OC)c2)ccc1N=Nc1ccc2c(S(=O)(=O)O)cc(S(=O)(=O)O)c(N)c2c1O
inactive: endpoint: mean survival time, dose: 50.0 mg/kg/injection, schedule: Q01DX001 (ip), vehicle: saline 91 % of control | [9] 94 % of control | [8] 94 % of control | [10] 88 % of control | [11] 95 % of control | [12] 94 % of control

O=S(=O)(O)Sc1ccccc1
inactive: endpoint: mean survival time, dose: 25.0 mg/kg/injection, schedule: Q04DX003 (ip), vehicle: saline 97 % of control | endpoint: mean survival time, dose: 50.0 mg/kg/injection, schedule: Q04DX003 (ip), vehicle: saline 97 % of control | [8] 98 % of control

COC12CC(COC(=O)c3cncc(Br)c3)CN(C)C1Cc1cn(C)c3cccc2c13 (stereo not given)
inactive: endpoint: mean survival time, dose: 100.0 mg/kg/injection, schedule: Q04DX003 (ip), vehicle: alcohol 105 % of control | endpoint: mean survival time, dose: 200.0 mg/kg/injection, schedule: Q04DX003 (ip), vehicle: alcohol 102 % of control | endpoint: mean survival time, dose: 400.0 mg/kg/injection, schedule: Q04DX003 (ip), vehicle: alcohol 111 % of control

CCCCCCCCCCCCCCCC(=O)NCCNC(=O)CCCCCCCCCCCCCCC
inactive: [3] 92 % of control | endpoint: mean survival time, dose: 75.0 mg/kg/injection, schedule: Q01DX001 (ip), vehicle: saline 98 % of control | [7] 90 % of control | endpoint: mean survival time, dose: 150.0 mg/kg/injection, schedule: Q01DX001 (ip), vehicle: saline 93 % of control | [13] 94 % of control | endpoint: mean survival time, dose: 300.0 mg/kg/injection, schedule: Q01DX001 (ip), vehicle: saline 98 % of control

CC(C)(C)C(=O)CC(=O)C(C)(C)C.CC(C)(C)C(=O)CC(=O)C(C)(C)C.CC(C)(C)C(=O)CC(=O)C(C)(C)C.[Y]
inactive: [14] 97 % of control | [15] 95 % of control | [16] 91 % of control

CCOC(=O)c1ccc(NC(=O)Nc2cccc(NC(C)=O)c2)cc1
inactive: endpoint: mean survival time, dose: 50.0 mg/kg/injection, schedule: Q01DX001 (ip), vehicle: saline with Tween-80 96 % of control | [3] 87 % of control and 91 % of control | [17] 90 % of control | [4] 92 % of control | [7] 87 % of control and 91 % of control | endpoint: mean survival time, dose: 100.0 mg/kg/injection, schedule: Q04DX002 (ip), vehicle: saline with Tween-80 87 % of control and 90 % of control | [14] 86 % of control | [5] 96 % of control | [13] 91 % of control | endpoint: mean survival time, dose: 200.0 mg/kg/injection, schedule: Q04DX002 (ip), vehicle: saline with Tween-80 91 % of control | [15] 100 % of control | [6] 92 % of control

CNCC(=O)NCCCCCCCCCCNC(=O)CNC
inactive: endpoint: mean survival time, dose: 12.5 mg/kg/injection, schedule: Q01DX010 (ip), vehicle: saline 100 % of control | endpoint: mean survival time, dose: 25.0 mg/kg/injection, schedule: Q01DX010 (ip), vehicle: saline 101 % of control | endpoint: mean survival time, dose: 50.0 mg/kg/injection, schedule: Q01DX010 (ip), vehicle: saline 97 % of control | endpoint: mean survival time, dose: 100.0 mg/kg/injection, schedule: Q01DX010 (ip), vehicle: saline 95 % of control

CC(C)(C)C1=CC(=O)C(C#N)=C(C#N)C1=O
inactive: [2] 96 % of control

C=C1CC2C=CC1C2 (stereo not given) (tested in a mixture with another compound)
inactive: endpoint: mean survival time, dose: 80.5 mg/kg/injection, schedule: Q01DX009 (ip), vehicle: saline with Tween-80 90 % of control

c1ccc(P2(c3ccccc3)=NP(c3ccccc3)(c3ccccc3)=NP(c3ccccc3)(c3ccccc3)=N2)cc1
inactive: [8] 102 % of control | [11] 94 % of control | endpoint: mean survival time, dose: 400.0 mg/kg/injection, schedule: Q04DX003 (ip), vehicle: saline 96 % of control

CC(=O)Nc1cccc(NC(C)=O)n1
inactive: [7] 95 % of control | [13] 94 % of control | endpoint: mean survival time, dose: 400.0 mg/kg/injection, schedule: Q01DX009 (ip), vehicle: saline with Tween-80 91 % of control

Nc1nc(=O)n(CCCOc2cccc(Cl)c2)cc1-c1ccc(Cl)c(Cl)c1
inactive: [4] 96 % of control | [5] 89 % of control | [6] 91 % of control

c1ccc(-c2ccc(-c3nnn4ccccc34)cc2)cc1
inactive: [9] 107 % of control | [10] 86 % of control | [12] 95 % of control

NS(=O)(=O)OCCCCCCCOS(N)(=O)=O
inactive: endpoint: median survival time, dose: 12.5 mg/kg/injection, schedule: Q01DX009 (ip), vehicle: saline with Tween-80 114 % of control and 116 % of control and 110 % of control

COc1ccc(C(=O)NC[n+]2ccccc2)cc1
inactive: [8] 109 % of control

Cc1ccc([N+](=O)[O-])cc1C#N
inactive: [14] 105 % of control | [15] 105 % of control | [16] 113 % of control

Nc1nc(N)c2c(n1)CCCC2
inactive: [1] 93 % of control | [2] 88 % of control

COc1ccc(CCNc2ccc(OC)c(OC)c2)cc1OC
inactive: endpoint: mean survival time, dose: 12.5 mg/kg/injection, schedule: Q01DX009 (ip), vehicle: water 100 % of control | endpoint: mean survival time, dose: 25.0 mg/kg/injection, schedule: Q01DX009 (ip), vehicle: water 96 % of control | endpoint: mean survival time, dose: 50.0 mg/kg/injection, schedule: Q01DX009 (ip), vehicle: water 100 % of control | endpoint: mean survival time, dose: 100.0 mg/kg/injection, schedule: Q01DX009 (ip), vehicle: water 96 % of control | endpoint: mean survival time, dose: 200.0 mg/kg/injection, schedule: Q01DX009 (ip), vehicle: water 91 % of control

CCN1CCS/C1=C\C=C\C1=[N+](CC)CCS1
inactive: endpoint: mean survival time, dose: 1.25 mg/kg/injection, schedule: Q01DX001 (ip), vehicle: other 98 % of control | endpoint: mean survival time, dose: 2.5 mg/kg/injection, schedule: Q01DX001 (ip), vehicle: other 101 % of control

CCCCC(=O)/C=C/Sc1n[nH]c(=O)[nH]c1=O
inactive: endpoint: mean survival time, dose: 12.5 mg/kg/injection, schedule: Q01DX005 (ip), vehicle: distilled water + Tween-80 104 % of control | endpoint: mean survival time, dose: 25.0 mg/kg/injection, schedule: Q01DX005 (ip), vehicle: distilled water + Tween-80 93 % of control | endpoint: mean survival time, dose: 50.0 mg/kg/injection, schedule: Q01DX005 (ip), vehicle: distilled water + Tween-80 90 % of control

CCCCCCC1=C(O)C(=O)C(CCCCCC)=C(O)C1=O
inactive: [9] 100 % of control | [10] 97 % of control | [12] 97 % of control

O=C(OC1CCCCC1c1ccccc1)c1ccc([N+](=O)[O-])cc1 (stereo not given)
inactive: [14] 90 % of control | [15] 98 % of control | [16] 90 % of control

O=C1OCC/C1=C/c1cccc(O)c1
inactive: endpoint: mean survival time, dose: 6.25 mg/kg/injection, schedule: Q04DX002 (ip), vehicle: Klucel (hydroxypropylcellulose) (HPC) 103 % of control | endpoint: mean survival time, dose: 25.0 mg/kg/injection, schedule: Q04DX002 (ip), vehicle: Klucel (hydroxypropylcellulose) (HPC) 107 % of control

COc1cc2c(cc1OC)C13CCN4CC5=CCOC6CC(=O)N2C1C6C5CC43 (stereo not given) (tested in a mixture with another compound)
inactive: [4] 110 % of control | endpoint: mean survival time, dose: 100.0 mg/kg/injection, schedule: Q01DX009 (ip), vehicle: saline 93 % of control

C=CCOCC(O)CN(CCCC)CCCC (stereo not given)
inactive: endpoint: mean survival time, dose: 25.0 mg/kg/injection, schedule: Q04DX003 (ip), vehicle: saline with Tween-80 104 % of control | [17] 106 % of control | [14] 90 % of control and 110 % of control

O=C(NCCO)c1cc2ccccc2o1
inactive: [4] 93 % of control | [5] 98 % of control | [6] 90 % of control

CCNC(=O)OCc1c(COC(=O)NCC)c(-c2ccc(Cl)c(Cl)c2)n2c1CCC2
inactive: endpoint: mean survival time, dose: 0.78 mg/kg/injection, schedule: Q01DX009 (ip), vehicle: saline with Tween-80 101 % of control | endpoint: mean survival time, dose: 1.56 mg/kg/injection, schedule: Q01DX009 (ip), vehicle: saline with Tween-80 108 % of control | [3] 91 % of control and 94 % of control and 111 % of control

c1ccc(N=Nc2n[nH]c3ccccc23)cc1
inactive: [14] 95 % of control | [15] 98 % of control | [16] 95 % of control

O.O.[Co].[Co].[NH-]CC[NH-].[NH-]CC[NH-].[NH-]CC[NH-].[NH-]CC[NH-]
inactive: endpoint: mean survival time, dose: 25.0 mg/kg/injection, schedule: Q04DX002 (ip), vehicle: saline 98 % of control | endpoint: mean survival time, dose: 50.0 mg/kg/injection, schedule: Q04DX002 (ip), vehicle: saline 106 % of control

Clc1nc2ccccc2c2ccccc12
inactive: [3] 97 % of control | [7] 94 % of control | [14] 109 % of control | [13] 92 % of control | [15] 111 % of control
